Results on five compounds are retold here after patent US12539292B2, “BRM targeting compounds and associated methods of use” (Arvinas Operations, Inc., priority 2018, dated 2026).

The target in the test is T1, BRM (Homo sapiens, UniProt P51531).
T1 construct: In-Cell Western Screen of BRM Degradation in SW1573 Cells; endogenous in cells; host or cells: SW1573
Description: In-cell Western screen of BRM degradation in SW1573 cells (Dmax and DC50). The class given is cell-based. The gist of the method:
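Adherent SW1573 cultures exposed to test compounds for 18-20 h were processed for in-cell Western after PFA fixation and detergent permeabilization. BRM degradation was reported as Dmax and DC50.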

Setting [1] is: BRM degradation, SW1573 cells, read-out: DC50.
The mark [2] stands for this setting: BRM degradation, SW1573 cells, when tested at the top concentration of between 0.3 and 10 μM, read-out: Dmax (%) (% degraded).

Read-outs that look alike come from different tables or passages of the source.

T1 sequence (P51531 whole entry): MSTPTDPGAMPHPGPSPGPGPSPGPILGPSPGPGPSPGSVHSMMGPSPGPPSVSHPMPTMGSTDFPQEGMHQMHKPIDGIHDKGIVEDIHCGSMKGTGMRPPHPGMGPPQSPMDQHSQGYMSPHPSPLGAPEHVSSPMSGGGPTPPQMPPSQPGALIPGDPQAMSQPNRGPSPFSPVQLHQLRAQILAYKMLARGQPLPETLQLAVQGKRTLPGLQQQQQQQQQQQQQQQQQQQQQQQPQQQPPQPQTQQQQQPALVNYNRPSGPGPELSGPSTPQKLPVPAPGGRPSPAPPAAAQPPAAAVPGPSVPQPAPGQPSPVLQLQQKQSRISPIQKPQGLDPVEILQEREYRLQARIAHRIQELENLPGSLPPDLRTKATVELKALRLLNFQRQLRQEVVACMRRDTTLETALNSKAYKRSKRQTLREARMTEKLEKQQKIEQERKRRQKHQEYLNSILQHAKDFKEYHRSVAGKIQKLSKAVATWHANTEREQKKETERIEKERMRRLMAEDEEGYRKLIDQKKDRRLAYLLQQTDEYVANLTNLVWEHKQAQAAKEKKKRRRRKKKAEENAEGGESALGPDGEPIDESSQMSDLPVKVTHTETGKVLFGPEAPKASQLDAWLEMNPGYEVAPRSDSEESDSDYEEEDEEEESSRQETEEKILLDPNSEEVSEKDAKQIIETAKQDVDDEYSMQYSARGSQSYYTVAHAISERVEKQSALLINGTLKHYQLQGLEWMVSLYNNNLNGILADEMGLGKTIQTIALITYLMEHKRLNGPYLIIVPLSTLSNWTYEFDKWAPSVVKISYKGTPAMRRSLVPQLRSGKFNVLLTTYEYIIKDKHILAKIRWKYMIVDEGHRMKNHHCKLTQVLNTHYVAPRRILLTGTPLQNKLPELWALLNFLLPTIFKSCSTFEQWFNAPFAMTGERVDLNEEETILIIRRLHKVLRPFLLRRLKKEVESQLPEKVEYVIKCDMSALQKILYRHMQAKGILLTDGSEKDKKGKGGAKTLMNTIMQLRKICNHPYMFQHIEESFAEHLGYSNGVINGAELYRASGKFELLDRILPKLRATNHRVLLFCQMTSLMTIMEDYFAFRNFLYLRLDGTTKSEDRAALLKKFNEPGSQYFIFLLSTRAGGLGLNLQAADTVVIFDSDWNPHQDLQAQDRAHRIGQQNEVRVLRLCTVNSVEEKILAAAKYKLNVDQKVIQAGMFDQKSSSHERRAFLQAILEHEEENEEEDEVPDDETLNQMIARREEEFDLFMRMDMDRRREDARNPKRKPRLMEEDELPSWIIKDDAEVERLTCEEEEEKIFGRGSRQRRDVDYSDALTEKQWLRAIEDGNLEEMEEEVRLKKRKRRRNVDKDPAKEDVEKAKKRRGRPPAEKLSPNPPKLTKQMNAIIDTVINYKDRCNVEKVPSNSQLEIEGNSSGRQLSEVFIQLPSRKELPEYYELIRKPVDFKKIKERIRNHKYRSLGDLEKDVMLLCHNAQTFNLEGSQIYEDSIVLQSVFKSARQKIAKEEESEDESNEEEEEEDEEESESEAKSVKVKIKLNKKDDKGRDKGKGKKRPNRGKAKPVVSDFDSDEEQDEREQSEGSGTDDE

What is called DC50 is the midpoint of the concentration-degradation curve. Turning to `CC(C)[C@H](C(=O)N1C[C@H](O)C[C@H]1C(=O)N[C@@H](C)c1ccc(-n2ccnn2)cc1)c1cc(OCCN2CCN(CCOc3cc(N4C5CCC4CN(c4cc(-c6ccccc6O)nnc4N)C5)ccn3)CC2)no1` [compound 292, (2S,4R)-N-((S)-1-(4-(1H-1,2,3-triazol-1-yl)phenyl)ethyl)-1-((2S)-2-(3-(2-(4-(2-((4-(3-(3-amino-6-(2-hydroxyphenyl)pyridazin-4-yl)-3,8-diazabicyclo[3.2.1]octan-8-yl)pyridin-2-yl)oxy)ethyl)piperazin-1-yl)ethoxy)isoxazol-5-yl)-3-methylbutanoyl)-4-hydroxypyrrolidine-2-carboxamide], the DC50 under setting [1] is more than 30 nM.

A word on the Dmax: it is the greatest extent of degradation seen. As to `CC[C@H](NC(=O)[C@@H]1C[C@@H](O)CN1C(=O)[C@@H](c1cc(N2CCC(CN3CCC(O[C@H]4C[C@H](Oc5cc(N6C7CCC6CN(c6cc(-c8ccccc8O)nnc6N)C7)ccn5)C4)CC3)CC2)no1)C(C)C)c1ccc(-c2scnc2C)cc1` [compound 654, (2S,4R)-1-((2R)-2-(3-(4-((4-((1r,3r)-3-((4-(3-(3-amino-6-(2-hydroxyphenyl)pyridazin-4-yl)-3,8-diazabicyclo[3.2.1]octan-8-yl)pyridin-2-yl)oxy)cyclobutoxy)piperidin-1-yl)methyl)piperidin-1-yl)isoxazol-5-yl)-3-methylbutanoyl)-4-hydroxy-N-((S)-1-(4-(4-methylthiazol-5-yl)phenyl)propyl)pyrrolidine-2-carboxamide], the 50% degradation concentration (DC50) under setting [1] is less than 2.5 nM. Moreover, the Dmax (BRM degradation, SW1573 cells, read-out: Dmax (% degraded)) was more than 75%.

As to `Cc1ncsc1-c1ccc(CNC(=O)[C@@H]2C[C@@H](O)CN2C(=O)C(c2cc(CCCOCCOCCn3cc(-c4cc(-c5ccccc5O)nnc4N)cn3)no2)C(C)C)cc1` (stereo partly drawn) [compound 22, (2S,4R)-1-(2-(3-(3-(2-(2-(4-(3-amino-6-(2-hydroxyphenyl)pyridazin-4-yl)-1H-pyrazol-1-yl)ethoxy)ethoxy)propyl)isoxazol-5-yl)-3-methylbutanoyl)-4-hydroxy-N-(4-(4-methylthiazol-5-yl)benzyl)pyrrolidine-2-carboxamide], the DC50 under setting [1] is more than 30 nM. Further, the Dmax under setting [2] was more than 75%.

For the compound `Cc1ncsc1-c1ccc(CNC(=O)[C@@H]2C[C@@H](O)CN2C(=O)[C@@H](NC(=O)COCCOCCOCCOc2cc(N3C4CCC3CN(c3cc(-c5ccccc5O)nnc3N)C4)ccn2)C(C)(C)C)cc1` [compound 6, (2S,4R)-1-((2S)-14-((4-(3-(3-amino-6-(2-hydroxyphenyl)pyridazin-4-yl)-3,8-diazabicyclo[2.1]octan-8-yl)pyridin-2-yl)oxy)-2-(tert-butyl)-4-oxo-6,9,12-trioxa-3-azatetradecanoyl)-4-hydroxy-N-(4-(4-methylthiazol-5-yl)benzyl)pyrrolidine-2-carboxamide], the 50% degradation concentration (DC50) under setting [1] fell in the range of 10 to 30 nM. Besides, the Dmax under setting [2] is more than 75%.

With `Cc1ncsc1-c1ccc([C@H](C)NC(=O)[C@@H]2C[C@@H](O)CN2C(=O)[C@@H](c2cc(N3CCC(O[C@H]4C[C@H](Oc5cc(N6C7CCC6CN(c6cc(-c8ccccc8O)nnc6N)C7)ccn5)C4)CC3)no2)C(C)C)cc1` [compound 404, (2S,4R)-1-((2R)-2-(3-(4-((1r,3R)-3-((4-(3-(3-amino-6-(2-hydroxyphenyl)pyridazin-4-yl)-3,8-diazabicyclo[3.2.1]octan-8-yl)pyridin-2-yl)oxy)cyclobutoxy)piperidin-1-yl)isoxazol-5-yl)-3-methylbutanoyl)-4-hydroxy-N-((S)-1-(4-(4-methylthiazol-5-yl)phenyl)ethyl)pyrrolidine-2-carboxamide], the Dmax (SW1573, % degraded, when tested at the top concentration of between 0.3 and 10 μM, read-out: BRM Dmax (%)) was more than 75%. Moreover, the DC50 (degradation of BRM, read-out: BRM DC50) was less than 2.5 nM.
